Results taken from patent US8957238B2, “Process for preparing malathion for pharmaceutical use” (priority 2005, dated 2015).

Assay: Storage stability of dry pharmaceutical grade malathion, HPLC (Example 18)
Type: physicochemical
Method: Purity was determined using a high performance liquid chromatography (HPLC) instrument with a variable wavelength detector.
Isomalathion content was determined using a high performance liquid chromatography (HPLC) instrument with a variable wavelength detector.
Four (4) samples of Dry Pharmaceutical Grade Malathion from Example 16, each weighing about 3-3.5 grams, were placed in separate clear glass bottles closed by a cap coated with polytetrafluoroethylene (PTFE). Each bottle was then inserted into a separate black polyethylene (PE) bag, which was tightly closed with a strip fastener. Each bag was then placed in a separate carton box.
The four (4) samples were stored for three (3) months under the following conditions: • Sample One: 40° C.±2° C. and 75%±5% relative humidity, • Sample Two: 30° C.±2° C. and 60%±5% relative humidity, • Sample Three: 25° C.±2° C. and 60%±5% relative humidity, and • Sample Four: 5° C.±3° C. and ambient relative humidity
The purity of each sample was determined after storage for one (1), two (2), and three (3) months using HPLC as set forth above (See Methodology and Protocols: End-of-Process Determination of Assay, Purity, and Impurities Other Than Isomalathion, End-of-Process Determination of Isomalathion).

[1] = Storage at 5° C. ± 3° C. and ambient relative humidity
[2] = Storage at 25° C. ± 2° C. and 60% ± 5% relative humidity
[3] = Storage at 30° C. ± 2° C. and 60% ± 5% relative humidity
[4] = Storage at 40° C. ± 2° C. and 75% ± 5% relative humidity

CCOC(=O)CC(SP(=S)(OC)OC)C(=O)OCC (stereo not shown) [[(dimethoxyphosphinothioyl)thio]butanedioic acid diethyl ester]
Diethyl fumarate Quantity After 1 Month [1]: <0.01 (LOD) % w/w | Diethyl fumarate Quantity After 2 Months [1]: <0.01 (LOD) % w/w | Diethyl fumarate Quantity After 3 Months [1]: <0.01 (LOD) % w/w | Dimethyl malathion Quantity After 1 Month [1]: <0.02 (LOD) % w/w | Dimethyl malathion Quantity After 2 Months [1]: <0.02 (LOD) % w/w | Dimethyl malathion Quantity After 3 Months [1]: <0.02 (LOD) % w/w | Isomalathion Quantity After 1 Month [1]: <0.02 (LOD) % w/w | Isomalathion Quantity After 2 Months [1]: <0.03 (LOQ) % w/w | Isomalathion Quantity After 3 Months [1]: <0.03 (LOQ) % w/w | Malaoxon Quantity After 1 Month [1]: <0.05 (LOD) % w/w | Malaoxon Quantity After 2 Months [1]: <0.05 (LOD) % w/w | Malaoxon Quantity After 3 Months [1]: <0.05 (LOD) % w/w | MeOOSPO Quantity After 1 Month [1]: <0.04 (LOD) % w/w | MeOOSPO Quantity After 2 Months [1]: <0.04 (LOD) % w/w | MeOOSPO Quantity After 3 Months [1]: <0.04 (LOD) % w/w | MeOOSPS Quantity After 1 Month [1]: 0.1 % w/w | MeOOSPS Quantity After 2 Months [1]: 0.1 % w/w | MeOOSPS Quantity After 3 Months [1]: 0.1 % w/w | MeOSSPO Quantity After 1 Month [1]: <0.02 (LOD) % w/w | MeOSSPO Quantity After 2 Months [1]: <0.02 (LOD) % w/w | MeOSSPO Quantity After 3 Months [1]: <0.02 (LOD) % w/w | Methyl malathion Quantity After 1 Month [1]: 0.05 % w/w | Methyl malathion Quantity After 2 Months [1]: 0.06 % w/w | Methyl malathion Quantity After 3 Months [1]: 0.06 % w/w | O,O-Me, Et Malathion analog Quantity After 1 Month [1]: 0.07 % w/w | O,O-Me, Et Malathion analog Quantity After 2 Months [1]: 0.07 % w/w | O,O-Me, Et Malathion analog Quantity After 3 Months [1]: 0.07 % w/w | Tetraethyl dithiodisuccinate Quantity After 1 Month [1]: 0.06 % w/w | Tetraethyl dithiodisuccinate Quantity After 2 Months [1]: 0.06 % w/w | Tetraethyl dithiodisuccinate Quantity After 3 Months [1]: 0.06 % w/w | Unknown (RRT = 0.38) Quantity After 1 Month [1]: 0.04 % w/w | Unknown (RRT = 0.38) Quantity After 2 Months [1]: 0.04 % w/w | Unknown (RRT = 0.38) Quantity After 3 Months [1]: 0.04 % w/w | Diethyl fumarate Quantity After 1 Month [2]: <0.01 (LOD) % w/w | Diethyl fumarate Quantity After 2 Months [2]: <0.01 (LOD) % w/w | Diethyl fumarate Quantity After 3 Months [2]: <0.01 (LOD) % w/w | Dimethyl malathion Quantity After 1 Month [2]: <0.02 (LOD) % w/w | Dimethyl malathion Quantity After 2 Months [2]: <0.02 (LOD) % w/w | Dimethyl malathion Quantity After 3 Months [2]: <0.02 (LOD) % w/w | Isomalathion Quantity After 1 Month [2]: <0.03 (LOQ) % w/w | Isomalathion Quantity After 2 Months [2]: <0.02 (LOD) % w/w | Isomalathion Quantity After 3 Months [2]: 0.04 % w/w | Malaoxon Quantity After 1 Month [2]: <0.05 (LOD) % w/w | Malaoxon Quantity After 2 Months [2]: <0.05 (LOD) % w/w | Malaoxon Quantity After 3 Months [2]: <0.05 (LOD) % w/w | MeOOSPO Quantity After 1 Month [2]: <0.04 (LOD) % w/w | MeOOSPO Quantity After 2 Months [2]: <0.04 (LOD) % w/w | MeOOSPO Quantity After 3 Months [2]: <0.04 (LOD) % w/w | MeOOSPS Quantity After 1 Month [2]: 0.1 % w/w | MeOOSPS Quantity After 2 Months [2]: 0.1 % w/w | MeOOSPS Quantity After 3 Months [2]: 0.1 % w/w | MeOSSPO Quantity After 1 Month [2]: <0.02 (LOD) % w/w | MeOSSPO Quantity After 2 Months [2]: <0.02 (LOD) % w/w | MeOSSPO Quantity After 3 Months [2]: <0.02 (LOD) % w/w | Methyl malathion Quantity After 1 Month [2]: 0.05 % w/w | Methyl malathion Quantity After 2 Months [2]: 0.05 % w/w | Methyl malathion Quantity After 3 Months [2]: 0.06 % w/w | O,O-Me, Et Malathion analog Quantity After 1 Month [2]: 0.08 % w/w | O,O-Me, Et Malathion analog Quantity After 2 Months [2]: 0.07 % w/w | O,O-Me, Et Malathion analog Quantity After 3 Months [2]: 0.07 % w/w | Tetraethyl dithiodisuccinate Quantity After 1 Month [2]: 0.06 % w/w | Tetraethyl dithiodisuccinate Quantity After 2 Months [2]: 0.06 % w/w | Tetraethyl dithiodisuccinate Quantity After 3 Months [2]: 0.06 % w/w | Unknown (RRT = 0.27) Quantity After 1 Month [2]: <0.02 (LOD) % w/w | Unknown (RRT = 0.27) Quantity After 2 Months [2]: <0.02 (LOD) % w/w | Unknown (RRT = 0.27) Quantity After 3 Months [2]: 0.06 % w/w | Unknown (RRT = 0.38) Quantity After 1 Month [2]: 0.04 % w/w | Unknown (RRT = 0.38) Quantity After 2 Months [2]: 0.04 % w/w | Unknown (RRT = 0.38) Quantity After 3 Months [2]: 0.04 % w/w | Diethyl fumarate Quantity After 1 Month [3]: <0.01 (LOD) % w/w | Diethyl fumarate Quantity After 2 Months [3]: <0.01 (LOD) % w/w | Diethyl fumarate Quantity After 3 Months [3]: <0.01 (LOD) % w/w | Dimethyl malathion Quantity After 1 Month [3]: <0.02 (LOD) % w/w | Dimethyl malathion Quantity After 2 Months [3]: <0.02 (LOD) % w/w | Dimethyl malathion Quantity After 3 Months [3]: <0.02 (LOD) % w/w | Isomalathion Quantity After 1 Month [3]: 0.03 % w/w | Isomalathion Quantity After 2 Months [3]: 0.04 % w/w | Isomalathion Quantity After 3 Months [3]: 0.06 % w/w | Malaoxon Quantity After 1 Month [3]: <0.05 (LOD) % w/w | Malaoxon Quantity After 2 Months [3]: <0.05 (LOD) % w/w | Malaoxon Quantity After 3 Months [3]: <0.05 (LOD) % w/w | MeOOSPO Quantity After 1 Month [3]: <0.04 (LOD) % w/w | MeOOSPO Quantity After 2 Months [3]: <0.04 (LOD) % w/w | MeOOSPO Quantity After 3 Months [3]: <0.04 (LOD) % w/w | MeOOSPS Quantity After 1 Month [3]: 0.1 % w/w | MeOOSPS Quantity After 2 Months [3]: 0.1 % w/w | MeOOSPS Quantity After 3 Months [3]: 0.1 % w/w | MeOSSPO Quantity After 1 Month [3]: <0.02 (LOD) % w/w | MeOSSPO Quantity After 2 Months [3]: <0.02 (LOD) % w/w | MeOSSPO Quantity After 3 Months [3]: <0.02 (LOD) % w/w | Methyl malathion Quantity After 1 Month [3]: 0.05 % w/w | Methyl malathion Quantity After 2 Months [3]: 0.06 % w/w | Methyl malathion Quantity After 3 Months [3]: 0.06 % w/w | O,O-Me, Et Malathion analog Quantity After 1 Month [3]: 0.08 % w/w | O,O-Me, Et Malathion analog Quantity After 2 Months [3]: 0.08 % w/w | O,O-Me, Et Malathion analog Quantity After 3 Months [3]: 0.07 % w/w | Tetraethyl dithiodisuccinate Quantity After 1 Month [3]: 0.06 % w/w | Tetraethyl dithiodisuccinate Quantity After 2 Months [3]: 0.05 % w/w | Tetraethyl dithiodisuccinate Quantity After 3 Months [3]: 0.06 % w/w | Unknown (RRT = 0.06) Quantity After 1 Month [3]: <0.02 (LOD) % w/w | Unknown (RRT = 0.06) Quantity After 2 Months [3]: <0.02 (LOD) % w/w | Unknown (RRT = 0.06) Quantity After 3 Months [3]: 0.04 % w/w | Unknown (RRT = 0.27) Quantity After 1 Month [3]: <0.02 (LOD) % w/w | Unknown (RRT = 0.27) Quantity After 2 Months [3]: 0.07 % w/w | Unknown (RRT = 0.27) Quantity After 3 Months [3]: 0.15 % w/w | Unknown (RRT = 0.38) Quantity After 1 Month [3]: 0.04 % w/w | Unknown (RRT = 0.38) Quantity After 2 Months [3]: 0.04 % w/w | Unknown (RRT = 0.38) Quantity After 3 Months [3]: 0.04 % w/w | Diethyl fumarate Quantity After 1 Month [4]: <0.01 (LOD) % w/w | Diethyl fumarate Quantity After 2 Months [4]: <0.01 (LOD) % w/w | Diethyl fumarate Quantity After 3 Months [4]: <0.02 (LOQ) % w/w | Dimethyl malathion Quantity After 1 Month [4]: <0.02 (LOD) % w/w | Dimethyl malathion Quantity After 2 Months [4]: <0.02 (LOD) % w/w | Dimethyl malathion Quantity After 3 Months [4]: <0.02 (LOD) % w/w | Isomalathion Quantity After 1 Month [4]: 0.06 % w/w | Isomalathion Quantity After 2 Months [4]: 0.1 % w/w | Isomalathion Quantity After 3 Months [4]: 0.1 % w/w | Malaoxon Quantity After 1 Month [4]: <0.05 (LOD) % w/w | Malaoxon Quantity After 2 Months [4]: <0.05 (LOD) % w/w | Malaoxon Quantity After 3 Months [4]: <0.05 (LOD) % w/w | MeOOSPO Quantity After 1 Month [4]: <0.04 (LOD) % w/w | MeOOSPO Quantity After 2 Months [4]: <0.04 (LOD) % w/w | MeOOSPO Quantity After 3 Months [4]: 0.05 % w/w | MeOOSPS Quantity After 1 Month [4]: 0.1 % w/w | MeOOSPS Quantity After 2 Months [4]: 0.2 % w/w | MeOOSPS Quantity After 3 Months [4]: 0.2 % w/w | MeOSSPO Quantity After 1 Month [4]: <0.02 (LOD) % w/w | MeOSSPO Quantity After 2 Months [4]: <0.02 (LOD) % w/w | MeOSSPO Quantity After 3 Months [4]: <0.02 (LOD) % w/w | Methyl malathion Quantity After 1 Month [4]: 0.06 % w/w | Methyl malathion Quantity After 2 Months [4]: 0.06 % w/w | Methyl malathion Quantity After 3 Months [4]: 0.06 % w/w | O,O-Me, Et Malathion analog Quantity After 1 Month [4]: 0.08 % w/w | O,O-Me, Et Malathion analog Quantity After 2 Months [4]: 0.07 % w/w | O,O-Me, Et Malathion analog Quantity After 3 Months [4]: 0.07 % w/w | Tetraethyl dithiodisuccinate Quantity After 1 Month [4]: 0.06 % w/w | Tetraethyl dithiodisuccinate Quantity After 2 Months [4]: 0.05 % w/w | Tetraethyl dithiodisuccinate Quantity After 3 Months [4]: 0.07 % w/w | Unknown (RRT = 0.06) Quantity After 1 Month [4]: <0.02 (LOD) % w/w | Unknown (RRT = 0.06) Quantity After 2 Months [4]: <0.02 (LOD) % w/w | Unknown (RRT = 0.06) Quantity After 3 Months [4]: 0.04 % w/w | Unknown (RRT = 0.25) Quantity After 1 Month [4]: <0.02 (LOD) % w/w | Unknown (RRT = 0.25) Quantity After 2 Months [4]: 0.06 % w/w | Unknown (RRT = 0.25) Quantity After 3 Months [4]: 0.12 % w/w | Unknown (RRT = 0.27) Quantity After 1 Month [4]: 0.10 % w/w | Unknown (RRT = 0.27) Quantity After 2 Months [4]: 0.38 % w/w | Unknown (RRT = 0.27) Quantity After 3 Months [4]: 0.76 % w/w | Unknown (RRT = 0.38) Quantity After 1 Month [4]: 0.04 % w/w | Unknown (RRT = 0.38) Quantity After 2 Months [4]: 0.04 % w/w | Unknown (RRT = 0.38) Quantity After 3 Months [4]: 0.04 % w/w | Storage stability (conclusion in words) (three (3) months at 5, 25, 30 and 40° C. conditions): storage stable
